# Where a chain is given by its changes, count along the chain named. Residues, ends and D or L forms follow the SMILES beside them. *: point of attachment. For = O=C*
# Experiments:
# Assay in all cases: Competition binding of fMLFK with WK(FITC)YMVm, flow cytometry on HEK293F cells
# [1] = target: T1, wild-type (WT) and mutant FPR2 (Homo sapiens, UniProt P25090, D281G); details: FPR2 D281G; mean ± s.e.m., n=3; SEM
# T1 construct: expressed in transfected cells; host or cells: HEK293F
# T1 sequence (P25090 1-351 D281G): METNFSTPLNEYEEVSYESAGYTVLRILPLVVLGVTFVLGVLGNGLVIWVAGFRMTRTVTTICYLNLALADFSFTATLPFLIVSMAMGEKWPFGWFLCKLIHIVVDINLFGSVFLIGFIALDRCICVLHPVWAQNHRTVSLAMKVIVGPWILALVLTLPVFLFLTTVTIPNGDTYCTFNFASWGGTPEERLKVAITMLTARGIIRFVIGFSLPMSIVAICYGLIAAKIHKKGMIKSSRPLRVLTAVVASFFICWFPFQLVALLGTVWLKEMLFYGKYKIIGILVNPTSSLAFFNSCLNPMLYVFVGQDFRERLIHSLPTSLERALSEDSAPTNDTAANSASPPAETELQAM
# Experimental: (§1) Flag-tagged wild-type and mutant FPR2s were cloned into the pTT5 vector and expressed in HEK293F cells. The cells were harvested, and washed with Hanks’ Balanced Salt Solution (HBSS) buffer supplemented with 0.5% bovine serum albumin and 20 mM HEPES, pH 7.4. The cells were then resuspended in the same buffer to the final concentration of 1 × 10^6 cells per ml. The cell-surface expression was measured as mentioned above. […] Mean fluorescent intensity of each well was then read by a FCM (flow cytometry) reader (Millipore). […] For competitive binding of fMLFK, cells were plated in 96-well plates (100,000 cells per well), and incubated with WK(FITC)YMVm at 4 °C for 1 h. The following concentrations of WK(FITC)YMVm were used: 10 nM (wild type, L81^2.60F, E89G, and V105^3.32A), 30 nM (D281^7.32G), 40 nM (H102^3.29F, V160^4.60A, L268^ECL3A, N285^7.36A, and F292^7.43A), and 100 nM (L164^4.64A and T177A). Then increasing concentrations of fMLFK (100 nM–1 mM) were added, and incubated for another 1 h on ice. Mean fluorescent intensity values were measured by flow cytometry. Data were analyzed using Prism 7.0.
# [2] = target: T2, wild-type (WT) and mutant FPR2 (Homo sapiens, UniProt P25090, F292A); details: FPR2 F292A; mean ± s.e.m., n=3; SEM
# T2 construct: expressed in transfected cells; host or cells: HEK293F
# T2 sequence (P25090 1-351 F292A): T1 sequence (P25090 1-351 D281G) with G281D, F292A
# Experimental: as §1
# [3] = target: T3, wild-type (WT) and mutant FPR2 (Homo sapiens, UniProt P25090, V160A); details: FPR2 V160A; mean ± s.e.m., n=3; SEM
# T3 construct: expressed in transfected cells; host or cells: HEK293F
# T3 sequence (P25090 1-351 V160A): T1 sequence (P25090 1-351 D281G) with V160A, G281D
# Experimental: as §1
# [4] = target: T4, wild-type (WT) and mutant FPR2 (Homo sapiens, UniProt P25090, N285A); details: FPR2 N285A; mean ± s.e.m., n=3; SEM
# T4 construct: expressed in transfected cells; host or cells: HEK293F
# T4 sequence (P25090 1-351 N285A): T1 sequence (P25090 1-351 D281G) with G281D, N285A
# Experimental: as §1
# [5] = target: T5, wild-type (WT) and mutant FPR2 (Homo sapiens, UniProt P25090, L268A); details: FPR2 L268A; mean ± s.e.m., n=3; SEM
# T5 construct: expressed in transfected cells; host or cells: HEK293F
# T5 sequence (P25090 1-351 L268A): T1 sequence (P25090 1-351 D281G) with L268A, G281D
# Experimental: as §1
smiles,measurement,setting,value
CSCC[C@H](NC=O)C(=O)N[C@@H](CC(C)C)C(=O)N[C@@H](Cc1ccccc1)C(=O)N[C@@H](CCCCN)C(=O)O [fMLFK] (For-MLFK-OH),"pKi, competition binding",[1],4.66 ± 0.16
same,"pKi, competition binding",[2],4.54 ± 0.11
same,"pKi, competition binding",[3],4.16 ± 0.14
same,"pKi, competition binding",[4],3.75 ± 0.16
same,"pKi, competition binding",[5],4.42 ± 0.15

# From PMC7058083, “Structural basis of ligand binding modes at the human formyl peptide receptor 2” (Nature Communications, 2020)
